Experimental findings from patent US20250154288A1, “CYTOTOXICITY TARGETING CHIMERAS FOR C-C CHEMOKINE RECEPTOR 2-EXPRESSING CELLS” (GLAXOSMITHKLINE INTELLECTUAL PROPERTY DEVELOPMENT LIMITED, priority 2022, published 2025) are described below.

The subject of this experiment is endogenous target monocytes of human PBMC. The experiment is described as follows: PBMC Ex Vivo Depletion Assay (human PBMC monocyte depletion flow cytometry). The class given is cell-based. The settings on record: monocyte depletion in human PBMC with anti-cotinine antibody; 18-24 hours incubation; read-out: Ex Vivo Depletion Assay pEC50 (converted). The procedure: A human PBMC (peripheral blood mononuclear cells) monocyte depletion flow cytometry assay was developed to screen compounds in a 384-well plate format. This assay incorporated endogenous natural killer cells to deplete endogenous target monocytes.
To screen compounds in the human PBMC monocyte depletion flow cytometry assay, 11-point dose-response curves were made from 1 mM stocks in neat DMSO by serially diluting an ARM compound of Formula (I) four-fold into a 384-well plate row-wise. These serially diluted compounds were then stamped into a flat bottom polypropylene 384-well plate (Greiner Bio-One) at 100 nL/well. […]
After 18-24 hours incubation, 2 μL of 6.25 μg human FC block (BD Pharmingen) that was diluted in assay medium was added to the wells of the plate. […] Samples from the plate were run on BD FACS Canto II flow cytometer and data was analyzed using FlowJo software.
ARMs compounds of Formula (I) of the invention were tested for the ability to deplete monocytes in the above assay in one or more experimental runs and the results are shown in Table 3 below. […] The pEC50 value is the negative log of the EC50 value, wherein the EC50 value is the half maximal effective concentration measured in molar (M). For compounds tested in more than one experimental run, the pEC50 value is reported as an average or as the individual values measured

With `CO[C@@H]1COCC[C@@H]1N[C@@H]1CC[C@@](C(=O)N2CCc3nc(CCCCOc4cccc(C(=O)NCCOCCOCCOCCOCCOCCOCCOCCOCCOCCNC(=O)[C@H]5CC(=O)N(C)[C@@H]5c5cccnc5)c4)c(C(F)(F)F)cc3C2)(C(C)C)C1` [Example 22, (2S,3S)—N-(1-(3-(4-(6-((1S,3R)-1-Isopropyl-3-(((3S,4S)-3-methoxytetrahydro-2H-pyran-4-yl)amino)cyclopentane-1-carbonyl)-3-(trifluoromethyl)-5,6,7,8-tetrahydro-1,6-naphthyridin-2-yl)butoxy)phenyl)-1-oxo-5,8,11,14,17,20,23,26,29-nonaoxa-2-azahentriacontan-31-yl)-1-methyl-5-oxo-2-(pyridin-3-yl)pyrrolidine-3-carboxamide], the EC50 is 0.794 nM.
